Laboratory results: patent US20260146035A1, “FUSED BICYCLIC COMPOUNDS AND THEIR USE AS MER AND AXL INHIBITORS” (DONG-A ST CO., LTD., priority 2022, published 2026)
Where two headings read alike, the source gives them in different places.

What was measured:
human MER (528-end) = biological target: T1, human MER (528-end) (Homo sapiens, UniProt Q12866); experiment: HTRF kinase activity biochemical assay, MER; settings: 10 μM ATP, 30 minutes pre-incubation; read-out: HTRF MERTK IC50
T1 construct: human MER (528-end); purchased Camnabio, Japan
T1 sequence (Q12866 528-999 limits assumed): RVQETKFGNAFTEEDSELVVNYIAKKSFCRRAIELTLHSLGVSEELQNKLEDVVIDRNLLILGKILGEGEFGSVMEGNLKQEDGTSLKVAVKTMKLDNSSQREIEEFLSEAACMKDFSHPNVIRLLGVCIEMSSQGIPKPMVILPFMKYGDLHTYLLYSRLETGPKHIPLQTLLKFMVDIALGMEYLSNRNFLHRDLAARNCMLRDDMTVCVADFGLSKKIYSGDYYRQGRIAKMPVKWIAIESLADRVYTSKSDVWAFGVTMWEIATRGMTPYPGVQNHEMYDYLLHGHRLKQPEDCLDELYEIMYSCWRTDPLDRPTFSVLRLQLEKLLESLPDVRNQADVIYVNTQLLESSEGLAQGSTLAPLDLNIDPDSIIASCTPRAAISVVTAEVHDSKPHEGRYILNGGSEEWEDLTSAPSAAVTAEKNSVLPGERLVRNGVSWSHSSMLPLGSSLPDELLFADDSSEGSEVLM
Method: (§1) For the SAR (structure-activity relationship) and compound screening, HTRF (Homogeneous Time Resolved Fluorescence) kinase activity assay was employed for all MER, AXL and TYRO3 kinases using Cisbio HTRF® KinEASE™-TK kit (Cisbio, USA). The kit included biotin-labeled TK substrate, streptavidin-XL665, Eu3+-cryptate-labeled TK antibody and HTRF® Detection buffer. There are two main steps in the kinase assay: kinase reaction and detection of phosphorylated substrate. The reaction was carried out in white low volume 384-well plate (Corning, USA) with 25 nL compound in dimethyl sulfoxide in each well. […] After 1 hour incubation at room temperature, the fluorescence intensity was measured with Envision[…] plate reader (PerkinElmer, USA). Upon excitation at 340 nm by UV, the energy from Eu3+ donor of the antibody is transferred to the FRET acceptor XL665, and […] emits light at 665 nm.

human AXL (473-end) = biological target: T2, human AXL (473-end) (Homo sapiens, UniProt P30530); experiment: HTRF kinase activity biochemical assay, AXL; settings: 10 μM ATP, 30 minutes pre-incubation
T2 construct: human AXL (473-end); purchased SignalChem, Canada
T2 sequence (P30530 473-894 limits assumed): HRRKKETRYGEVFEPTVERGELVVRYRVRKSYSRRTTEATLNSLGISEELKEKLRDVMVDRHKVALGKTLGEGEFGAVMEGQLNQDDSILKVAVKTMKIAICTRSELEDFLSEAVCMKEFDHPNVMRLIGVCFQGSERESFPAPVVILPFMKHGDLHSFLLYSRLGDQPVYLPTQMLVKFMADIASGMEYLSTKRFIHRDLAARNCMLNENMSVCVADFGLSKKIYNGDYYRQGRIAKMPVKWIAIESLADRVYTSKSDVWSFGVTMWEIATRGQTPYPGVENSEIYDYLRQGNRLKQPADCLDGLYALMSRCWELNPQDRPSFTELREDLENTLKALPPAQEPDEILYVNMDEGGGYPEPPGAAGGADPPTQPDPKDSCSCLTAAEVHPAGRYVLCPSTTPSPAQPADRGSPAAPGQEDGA
Method: as §1

human TYRO3 (455-end) = biological target: T3, human TYRO3 (455-end) (Homo sapiens, UniProt Q06418); experiment: HTRF kinase activity biochemical assay, TYRO3
T3 construct: TYRO3 (455-end); purchased SignalChem, Canada
T3 sequence (Q06418 455-890 limits assumed): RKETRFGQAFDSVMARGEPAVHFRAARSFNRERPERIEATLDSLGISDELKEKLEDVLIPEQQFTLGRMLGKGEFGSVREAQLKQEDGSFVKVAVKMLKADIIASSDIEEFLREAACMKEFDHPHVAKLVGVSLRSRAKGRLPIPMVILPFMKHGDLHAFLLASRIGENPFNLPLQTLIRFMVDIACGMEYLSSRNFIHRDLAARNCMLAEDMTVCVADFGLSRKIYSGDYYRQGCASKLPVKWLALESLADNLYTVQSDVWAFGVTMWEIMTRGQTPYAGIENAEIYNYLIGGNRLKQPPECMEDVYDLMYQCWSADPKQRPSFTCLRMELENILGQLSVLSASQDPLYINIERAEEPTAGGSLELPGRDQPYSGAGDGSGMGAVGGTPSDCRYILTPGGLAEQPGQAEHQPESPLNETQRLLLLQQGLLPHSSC
Method: as §1

[1] = 10 μM ATP, 30 minutes pre-incubation, read-out: HTRF TYRO IC50

Row | Compound | IC50 (human MER (528-end)) | IC50 (human AXL (473-end)) | IC50 (human TYRO3 (455-end); [1]) | IC50 (human TYRO3 (455-end))
1 | Nc1ncc(-c2cncc(F)c2)cc1C(=O)N[C@H]1CCC[C@@H]1OCc1ccc(-c2ccc3c(c2)OCCC3N2CCN(CCO)CC2)cc1 (stereo partly drawn) [Example 132, 6-amino-5′-fluoro-N-{(1S,2S)-2-[(4-{4-[4-(2-hydroxyethyl)piperazin-1-yl]-3,4-dihydro-2H-1-benzopyran-7-yl}phenyl)methoxy]cyclopentyl}[3,3′-bipyridine]-5-carboxamide] | < 10 nM | < 10 nM | 100 to 1000 nM | 
2 | CC1(C)C(=O)N(C2CCN(CCO)CC2)c2ccc(-c3ccc(CO[C@H]4CCC[C@@H]4NC(=O)c4cc(-c5ccc(F)nc5)cnc4N)cc3)nc21 [Example 74, 6-amino-6′-fluoro-N-{(1S,2S)-2-[(4-{1-[1-(2-hydroxyethyl)piperidin-4-yl]-3,3-dimethyl-2-oxo-2,3-dihydro-1H-pyrrolo[3,2-b]pyridin-5-yl}phenyl)methoxy]cyclopentyl}[3,3′-bipyridine]-5-carboxamide] | 100 to 1000 nM | > 1000 nM |  | 100 to 1000 nM
3 | C=C(C)c1cnc(N)c(C(=O)N[C@H]2CCC[C@@H]2OCc2ccc(-c3ccc4c(c3)C(C)(C)CN4C3CCN(CCO)CC3)cc2)c1 [Example 51, 2-amino-N-{(1S,2S)-2-[(4-{1-[1-(2-hydroxyethyl)piperidin-4-yl]-3,3-dimethyl-2,3-dihydro-1H-indol-5-yl}phenyl)methoxy]cyclopentyl}-5-(prop-1-en-2-yl)pyridine-3-carboxamide] | < 10 nM | < 10 nM | < 10 nM | 
4 | Cn1cc(-c2cnc(N)c(C(=O)N[C@H]3C[C@H](O)C[C@@H]3OCc3ccc(-c4ccc5c(c4)C(C)(C)CN5C4CCN(CCO)CC4)cc3)c2)cn1 (relative stereo) [Example 38, rel-2-amino-N-{(1S,2S,4S)-4-hydroxy-2-[(4-{1-[1-(2-hydroxyethyl)piperidin-4-yl]-3,3-dimethyl-2,3-dihydro-1H-indol-5-yl}phenyl)methoxy]cyclopentyl}-5-(1-methyl-1H-pyrazol-4-yl)pyridine-3-carboxamide] | < 10 nM | < 10 nM | 10 to 100 nM | 
5 | CN1CCC(n2ccc3cc(-c4ccc(CO[C@H]5CCC[C@@H]5NC(=O)c5cc(-c6cnn(C)c6)cnc5N)cc4)ccc32)CC1 [Example 6, 2-amino-N-[(1S,2S)-2-({4-[1-(1-methylpiperidin-4-yl)-1H-indol-5-yl]phenyl}methoxy)cyclopentyl]-5-(1-methyl-1H-pyrazol-4-yl)pyridine-3-carboxamide] | < 10 nM | < 10 nM | 100 to 1000 nM | 
6 | Cn1cc(-c2cnc(N)c(C(=O)N[C@H]3CCC[C@@H]3OCc3ccc(-c4ccc5c(c4)C4(CC4)CN5C4CCN(CCO)CC4)cc3)c2)cn1 [Example 28, 2-amino-N-{(1S,2S)-2-[(4-{1′-[1-(2-hydroxyethyl)piperidin-4-yl]-1′,2′-dihydrospiro[cyclopropane-1,3′-indol]-5′-yl}phenyl)methoxy]cyclopentyl}-5-(1-methyl-1H-pyrazol-4-yl)pyridine-3-carboxamide] | 10 to 100 nM | 10 to 100 nM | 10 to 100 nM | 
7 | CN1CCN(C2CC(C)(C)c3cc(-c4ccc(CO[C@H]5CCC[C@@H]5NC(=O)c5cc(-c6ccc(F)nc6)cnc5N)cc4)ccc32)CC1 (stereo partly drawn) [Example 94, 6-amino-N-[(1S,2S)-2-({4-[3,3-dimethyl-1-(4-methylpiperazin-1-yl)-2,3-dihydro-1H-inden-5-yl]phenyl}methoxy)cyclopentyl]-6′-fluoro[3,3′-bipyridine]-5-carboxamide] | < 10 nM | < 10 nM | 10 to 100 nM | 
8 | Cn1cc(-c2cnc(N)c(C(=O)N[C@H]3CCC[C@@H]3OCc3ccc(-c4ccc5c(c4)C(C)(C)CN5C4CCN(CC(O)CO)CC4)cc3)c2)cn1 (stereo partly drawn) [Example 23, 2-amino-N-{(1S,2S)-2-[(4-{1-[1-(2,3-dihydroxypropyl)piperidin-4-yl]-3,3-dimethyl-2,3-dihydro-1H-indol-5-yl}phenyl)methoxy]cyclopentyl}-5-(1-methyl-1H-pyrazol-4-yl)pyridine-3-carboxamide] | < 10 nM | < 10 nM | < 10 nM | 
